{"source": "patent US11167039B2", "about": "“MET antibody drug conjugates” (priority 2016, dated 2021)", "key": {"[1]": {"tested_on": "T47D", "test": "Cell killing, T47D", "type": "cell-based, human", "parameters": "key: Sensitive; Resistant", "details": "Breast Ca", "procedure": "(§1) Briefly described, 2-3×10^3 cells/well in 100 μL of culture medium may be plated in 96 well plates and incubated overnight at 37° C., 5% CO2. The MET-ADCs, MET antibody(ies), control MMAE or control hIgG4 conjugated to MMAE with cysteine conjugation antibody(ies) may be diluted 1:3 in serum-free culture medium starting from 100 nM (final) in 50 μL as 3× concentrations to the HT-29 cells. At the end of an additional 5-6 days of cell growth at 37° C. in a humidified incubator with 5% CO2, the plates may be equilibrated to room temperature for 30 minutes and 100 μL/well of CellTiter-Glo® reagent (Promega Corp., Fitchburg, Wis.) may then be added to assess cell viability. Cell viability may be determined by measuring luminescence.\n(§2) Various tumor cell lines and normal human cells may be tested for MET-ADC induced cell killing activity essentially as described above in Example 10 as assessed for MET receptor density. MET cell surface density was determined by indirect immunofluorescence staining of cell surface antigens on cultured cells using QIFIKIT (Dako). […] Following a forty-five minute incubation, cells may be incubated for 1 hour on ice with FITC conjugated antibody diluted 1:50 in FACS buffer. Then cells may be washed and receptor numbers may be determined by indirect immunofluorescence staining of the QIFIKIT beads using a Becton Dickinson LSRII flow cytometer."}, "[2]": {"tested_on": "RPTEC", "test": "Cell killing, non-tumor RPTEC", "type": "cell-based, human", "parameters": "key: Sensitive; Resistant", "details": "renal proximal tubul cell", "procedure": "as §1, §2"}, "[3]": {"tested_on": "humen fresh naïve PBMC", "test": "Cell killing, fresh naïve PBMC", "type": "cell-based, human", "parameters": "key: Sensitive; Resistant", "details": "3 donors", "procedure": "as §1, §2"}, "[4]": {"tested_on": "SW 1990", "test": "Cell killing, SW 1990", "type": "cell-based, human", "parameters": "key: Sensitive; Resistant", "details": "SW 1990, PANC Ca", "procedure": "as §1, §2"}, "[5]": {"tested_on": "Su.86.86", "test": "Cell killing, Su.86.86", "type": "cell-based, human", "parameters": "key: Sensitive; Resistant", "details": "Su.86.86, PANC Ca", "procedure": "as §1, §2"}, "[6]": {"tested_on": "BxPC-3 xenograft", "test": "BxPC-3 pancreatic cancer xenograft model", "type": "in vivo, mouse", "details": "vs control hIgG4-Lys-ADC", "procedure": "(§3) Female athymic nude mice age 6- to 7-weeks old are available commercially, including from Harlan Laboratories (Indianapolis, Ind.). The mice are allowed to acclimate for one week and fed ad libitum on a normal low fat (4.5%) diet, which may be continued for the duration of the study. Tumor cells may be purchased from ATCC and may be cultured in cell culture media such as RPMI 1640 (Life Technologies) with L-glutamine, 25 mM HEPES supplemented with 10% FBS and 1 mM Na Pyruvate. Cells may be detached, washed with serum free medium and then resuspended at a final concentration of 50×10^6 cells/mL in serum free RPMI 1640. Tumor cells, approximately 5×10^6, may be injected subcutaneously in the rear flank of subject mice in a 1:1 mixture of serum free growth medium and Matrigel (Becton Dickinson, Bedford, Mass.). Tumor and body weight measurements may be performed twice weekly. Prior to treatment, mice can be randomized based on tumor size using a randomization algorithm. Treatments may be started when the average tumor volume reaches 100 mm^3. […]\n(§4) MET-ADCs and control hIgG4-MMAE may be prepared in Phosphate Buffered Saline (PBS) prior to dose. Tumor size may be determined by caliper measurements. […] Log volume data can be analyzed with two-way repeated measures ANOVA by time and treatment using SAS PROC MIXED software (SAS Institutes Inc, Cary, N.C.). […]"}, "[7]": {"tested_on": "Hs 746T", "test": "Cell killing, Hs 746T", "type": "cell-based, human", "parameters": "key: Sensitive; Resistant", "details": "Gastric Ca", "procedure": "as §1, §2"}, "[8]": {"tested_on": "MET expressing tumor cells", "test": "Correlation of tumor cell MET expression level and sensitivity to MET-ADC", "type": "cell-based", "procedure": "as §1, §2"}, "[9]": {"tested_on": "HCT-116", "test": "Cell killing, HCT-116", "type": "cell-based, human", "parameters": "key: Sensitive; Resistant", "details": "HCT-116, Colorectal Ca", "procedure": "as §1, §2"}, "[10]": {"tested_on": "HCC827", "test": "Cell killing, HCC827", "type": "cell-based, human", "parameters": "key: Sensitive; Resistant", "details": "HCC827, NSCLC", "procedure": "as §1, §2"}, "[11]": {"tested_on": "Hs746T xenografts", "test": "Hs746T gastric cancer xenograft model", "type": "in vivo, mouse", "details": "3 mg/kg once per week for 4 weeks", "procedure": "as §3, §4"}, "[12]": {"tested_on": "colorectal cancer PDX tumors", "test": "Colorectal cancer PDX models", "type": "in vivo, mouse", "details": "1 or 3 mg/kg weekly, four doses", "from_the_text": "Body weight can also be assessed regularly.\nColorectal tumor samples from 37 human colorectal cancer patients were individually implanted into different immunocompromised mice (i.e., each mouse carried one tumor derived from a patient's […] tumor) essentially as described above in this Example 13."}, "[13]": {"tested_on": "SNU1196", "test": "Cell killing, SNU1196", "type": "cell-based, human", "parameters": "key: Sensitive; Resistant", "details": "SNU1196, Cholangiocarcinoma", "procedure": "as §1, §2"}, "[14]": {"tested_on": "HPAF-II", "test": "Cell killing, HPAF-II", "type": "cell-based, human", "parameters": "key: Sensitive; Resistant", "details": "PANC Ca", "procedure": "as §1, §2"}, "[15]": {"tested_on": "MiaPaca-2", "test": "Cell killing, MiaPaca-2", "type": "cell-based, human", "parameters": "key: Sensitive; Resistant", "details": "MiaPaca-2, PANC Ca", "procedure": "as §1, §2"}}, "note": "“Also recorded” adds a separate entry of the source."}
{"substance": "MET-ADC#1: emibetuzumab lysine-conjugated via (2,5-dioxopyrrolidin-1-yl) 2-azidoacetate and Octyne-β-Glucn-MMAE", "values": [{"measurement": "Sensitive/ Resistant", "setting": "[1]", "result": "R"}, {"measurement": "Sensitive/ Resistant", "setting": "[2]", "result": "R"}, {"measurement": "Sensitive/ Resistant", "setting": "[3]", "result": "R"}, {"measurement": "Sensitive/ Resistant", "setting": "[4]", "result": "R"}, {"measurement": "Sensitive/ Resistant", "setting": "[5]", "result": "R"}, {"measurement": "anti-tumor activity", "setting": "[6]", "result": "dramatic anti-tumor activity"}, {"measurement": "Sensitive/ Resistant", "setting": "[7]", "result": "S"}, {"measurement": "killing activity compared with MET-ADC #6", "setting": "[8]; similar experiments using other cells", "result": "superior killing activity than MET-ADC #6"}, {"measurement": "approximate threshold of MET cell surface density for tumor cell killing", "setting": "[8]; tumor cells sensitive to MMAE, not secreting HGF", "result": "> 32,000 receptor per cells"}, {"measurement": "Sensitive/ Resistant", "setting": "[9]", "result": "R"}, {"measurement": "Sensitive/ Resistant", "setting": "[10]", "result": "S"}, {"measurement": "antitumor efficacy", "setting": "[11]", "result": "significantly greater antitumor efficacy than the IgG4 Lys-MMAE control treatments; also recorded: durable and complete tumor regression"}, {"measurement": "Complete Response (CR)", "setting": "[12]; 37 PDX", "result": 5.4, "unit": "%"}, {"measurement": "activity in colorectal cancer PDX models", "setting": "[12]; vs control hIgG4-ADC", "result": "little activity"}, {"measurement": "Sensitive/ Resistant", "setting": "[13]", "result": "R"}, {"measurement": "Sensitive/ Resistant", "setting": "[14]", "result": "S"}, {"measurement": "Sensitive/ Resistant", "setting": "[15]", "result": "R"}]}
